According to patent publication US20100076091A1, “COMPOSITION AND METHOD FOR SUPPRESSING LIPOOXIDATION OF ERYTHROCYTE” (TOHOKU UNIVERSITY, priority 2007, published 2010):
Blank lines part the entries; values can stand above or below the compound they belong to.

Legend:
[1] = test system: peroxidized phospholipids in erythrocytes; test: Erythrocyte peroxidized phospholipid level (PCOOH, PEOOH) after oral ingestion, by CL-HPLC; assay type: in vivo, human; conditions: within 4 weeks after the start of ingestion, lutein 9.7 mg/day; 6 normal subjects
Protocol: Packed cells (washed erythrocytes, 1.5 mL) prepared in a manner similar to that in 1-1 of Example 1 were added to a 50-mL screw cap glass centrifugation tube and then 1.5 mL of a 0.1 mM EDTA-2Na aqueous solution was added, followed by gentle agitation. The solution was allowed to stand in ice for 15 minutes and then 15 mL of isopropanol was added, followed by gentle agitation. The solution was allowed to stand for 30 minutes in ice and then 15 mL of chloroform was added. After vortexing, the solution was allowed to stand for 30 minutes in ice and then centrifuged (1000 g, 10 minutes, 4° C.). […] Solvent removal was carried out under nitrogen and then the total lipid level was measured by a gravimetric method. […]
Peroxidized phospholipids (phosphatidyl choline hydroperoxide (PCOOH) and phosphatidylethanolamine hydroperoxide (PEOOH)) in erythrocytes were measured by chemiluminescence-high performance liquid chromatography (CL-HPLC). […] After separation of PCOOH and PEOOH from other lipid components by HPLC, PCOOH and PEOOH are reacted with a luminescence reagent and then hydroperoxide-group-derived chemiluminescence is detected and quantitatively determined. Specifically, the above obtained chloroform/methanol (2:1, v/v) solution (40 μL) of total erythrocyte lipids was subjected to CL-HPLC and then peroxidized phospholipids were quantitatively determined. […]

[2] = test system: erythrocytes; test: Search for ingredients capable of preventing lipoperoxidation of erythrocytes
[3] = human, in vivo
Protocol: Blood (12 mL) of a subject after the subject had fasted for 12 hours was collected using EDTA. Blood was centrifuged (1000 g, 10 minutes, 4° C.), so that 6 mL of erythrocytes was obtained. To wash erythrocytes, 5-fold volume (30 mL) of physiological phosphate buffer (pH 8.0) was added and then centrifugation was carried out (2300 g, 10 minutes, 4° C.), thereby removing supernatants. This procedure was repeated 3 times, so that 4 mL of packed cells (washed erythrocytes) was obtained. • 1-2. Extraction of Carotenoid from Erythrocytes and Quantitative Determination Thereof
Two (2) mL of water was added to 2 mL of packed cells (washed erythrocytes) for hemolysis of erythrocytes. […] Fifty (50) μL of the solution was subjected to the following UV-HPLC analysis, so that erythrocyte carotenoid was quantitatively determined. […]
To examine whether the ingested xanthophyll would be actually transferred to erythrocytes so as to suppress accumulation of peroxidized phospholipids, lutein that exists at the highest concentration among human erythrocyte xanthophyll members was administered to 6 normal subjects (3 male subjects and 3 female subjects) for 4 weeks. […] Erythrocytes were separated from the thus obtained blood and then the concentration of erythrocyte lutein and the peroxidized phospholipid level were measured. […]

SMILES: CC1=C[C@H](O)CC(C)(C)[C@H]1/C=C/C(C)=C/C=C/C(C)=C/C=C/C=C(C)/C=C/C=C(C)/C=C/C1=C(C)C[C@@H](O)CC1(C)C [lutein]
peroxidized phospholipid level in erythrocytes compared with the level before the start of ingestion [1]: significantly decreased

SMILES: Cc1c(C)c2c(c(C)c1O)CC[C@@](C)(CCC[C@H](C)CCC[C@H](C)CCCC(C)C)O2 [α-tocopherol]
prevention of lipoperoxidation of erythrocytes [2]: has no such effects

concentration of erythrocyte zeaxanthin, average [3]: 52 pmol/g hemoglobin
SMILES: CC1=C(/C=C/C(C)=C/C=C/C(C)=C/C=C/C=C(C)/C=C/C=C(C)/C=C/C2=C(C)C[C@@H](O)CC2(C)C)C(C)(C)C[C@H](O)C1 [zeaxanthin]
